Laboratory results reported in patent US11565264B2, “Expandable arrays and methods of use” (Rutgers, The State University of New Jersey, priority 2018, dated 2023).
pEC50: −log10 of the molar value.

Legend:
U87 spheres = details: read-out: EC50 (median dose); GBM cell viability
From the text: FIG. 15A illustrates the results of the cell titer glo assay that utilizes ATP levels and was used to determine GBM viability in the presence of component biomaterials. FIGS. 15B and 15C are low-power images of bright fields of spheres cultured for one week in the presence of the indicated chemicals and concentrations. The insets are higher power (20×) magnification of the 5× images.

GBM PDOs = experiment: 72-hour drug treatment of GBM patient derived organoids (PDOs) in basket arrays; format: cell-based; details: 72-hour treatment
Description: The basket arrays were used to deploy rapid single cell derived sphere and organoid assays to assess tumor cell viability, tumor invasion, terminal differentiation and resistance to therapy for cancer drug discovery and drug validation. […] PDOs were treated for 72-hours with standard chemotherapy (TMZ) and/or molecularly targeted agents, targeting mTOR, PI3K, BMI1, EGFR, and DDR, among others. Following treatments, the entire 4D printed basket arrays were evolved, with a 10-min heating step at 50° C., to their programmable cassette size to directly perform histological and IHC validation on the same day, and with the convenience of maintaining the same tissue plate arrangement. The concentrations inhibiting viability by 50% (GI50), real time activated caspase 3 for detection of apoptotic cells and GBM tumor cell invasion in live intact organoid cells were less impacted by standard TMZ than targeted therapies.

[1] = live intact organoid cells, TMZ compared with targeted therapies

| Molecule | pEC50 (U87 spheres) | EGFR expression in organoid cells (GBM PDOs) | GBM tumor cell invasion (GBM PDOs; [1]) | concentrations inhibiting viability by 50% (GI50) (GBM PDOs; [1]) | real time activated caspase 3 for detection of apoptotic cells (GBM PDOs; [1]) |
| --- | --- | --- | --- | --- | --- |
| poly (Ethylene glycol) diacrylate 250 [PEGDA250] | 5.14 | – | – | – | – |
| Cn1nnc2c(C(N)=O)ncn2c1=O [TMZ] | – | not affected | less impacted | less impacted | less impacted |
